From patent US9492471B2, “Methods of treating a disease or disorder associated with Bruton'S Tyrosine Kinase” (Celgene Avilomics Research, Inc., priority 2013, dated 2016)
Like-named read-outs stand apart in the source and are kept apart here.

Legend:
Test in all cases: HotSpot kinase profiling
Format in all cases: biochemical
[1] = target: T1, GRK5 (Homo sapiens, UniProt P34947)
T1 construct: purchased Reaction Biology Corp
How it was run: (§1)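 P81 filtration radiometric readout; 2 h incubation at room temperature; 0.1% phosphoric acid wash; DMSO negative control; % inhibition, mean of replicate runs.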

[2] = target: T2, AKT1 (Homo sapiens, UniProt P31749)
T2 construct: purchased Reaction Biology Corp
T2 sequence (P31749 whole entry): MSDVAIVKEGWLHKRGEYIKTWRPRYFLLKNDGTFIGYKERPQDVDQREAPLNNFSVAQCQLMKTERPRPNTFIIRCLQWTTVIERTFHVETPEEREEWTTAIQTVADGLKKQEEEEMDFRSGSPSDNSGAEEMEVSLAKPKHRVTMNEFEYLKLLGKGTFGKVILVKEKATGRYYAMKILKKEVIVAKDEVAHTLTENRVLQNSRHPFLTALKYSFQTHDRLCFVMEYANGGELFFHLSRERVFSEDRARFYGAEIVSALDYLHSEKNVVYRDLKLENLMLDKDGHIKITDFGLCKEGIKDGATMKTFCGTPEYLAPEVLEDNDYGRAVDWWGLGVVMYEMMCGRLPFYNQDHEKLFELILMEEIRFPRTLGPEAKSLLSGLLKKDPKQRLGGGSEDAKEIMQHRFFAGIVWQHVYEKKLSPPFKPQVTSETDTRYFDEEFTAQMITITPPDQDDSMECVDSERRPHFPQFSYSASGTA
How it was run: as §1

[3] = target: T3, ROCK2 (Homo sapiens, UniProt O75116)
T3 construct: purchased Reaction Biology Corp
T3 sequence (O75116 whole entry): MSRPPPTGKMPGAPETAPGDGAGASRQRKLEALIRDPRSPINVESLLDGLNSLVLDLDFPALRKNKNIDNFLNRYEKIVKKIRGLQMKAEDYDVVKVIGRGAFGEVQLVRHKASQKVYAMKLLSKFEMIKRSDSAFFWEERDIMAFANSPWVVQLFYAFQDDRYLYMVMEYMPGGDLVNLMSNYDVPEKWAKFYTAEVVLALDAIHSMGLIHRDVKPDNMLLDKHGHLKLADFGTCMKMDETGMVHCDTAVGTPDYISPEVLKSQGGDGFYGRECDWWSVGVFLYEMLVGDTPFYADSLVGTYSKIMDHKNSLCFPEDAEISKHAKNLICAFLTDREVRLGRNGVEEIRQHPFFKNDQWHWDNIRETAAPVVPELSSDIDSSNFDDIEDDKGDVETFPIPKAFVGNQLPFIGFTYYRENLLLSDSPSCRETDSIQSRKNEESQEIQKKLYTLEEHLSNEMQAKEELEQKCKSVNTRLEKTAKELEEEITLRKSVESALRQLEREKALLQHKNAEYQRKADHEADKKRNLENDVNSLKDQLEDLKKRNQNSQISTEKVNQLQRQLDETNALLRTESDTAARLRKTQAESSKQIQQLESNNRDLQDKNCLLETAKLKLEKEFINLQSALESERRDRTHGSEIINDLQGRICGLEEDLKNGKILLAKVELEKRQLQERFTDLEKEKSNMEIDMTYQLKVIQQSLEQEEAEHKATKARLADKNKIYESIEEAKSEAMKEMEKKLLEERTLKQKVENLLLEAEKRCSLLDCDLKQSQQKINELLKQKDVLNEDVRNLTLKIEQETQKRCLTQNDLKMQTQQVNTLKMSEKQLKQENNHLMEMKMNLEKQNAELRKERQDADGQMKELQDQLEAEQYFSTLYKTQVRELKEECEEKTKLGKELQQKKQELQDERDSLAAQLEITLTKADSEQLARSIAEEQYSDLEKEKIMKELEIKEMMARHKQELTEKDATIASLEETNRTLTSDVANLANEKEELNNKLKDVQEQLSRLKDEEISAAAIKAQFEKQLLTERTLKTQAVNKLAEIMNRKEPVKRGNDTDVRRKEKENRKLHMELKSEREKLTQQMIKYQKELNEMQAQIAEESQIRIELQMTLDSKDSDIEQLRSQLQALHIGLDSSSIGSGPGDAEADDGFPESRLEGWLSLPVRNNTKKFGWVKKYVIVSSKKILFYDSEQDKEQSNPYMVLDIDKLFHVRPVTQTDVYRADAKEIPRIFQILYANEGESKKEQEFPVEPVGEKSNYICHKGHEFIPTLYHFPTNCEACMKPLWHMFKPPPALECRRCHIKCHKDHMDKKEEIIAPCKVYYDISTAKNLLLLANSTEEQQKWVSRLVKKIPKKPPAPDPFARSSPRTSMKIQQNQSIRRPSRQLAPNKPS
How it was run: as §1

[4] = target: T4, SRMS (Homo sapiens, UniProt Q9H3Y6)
T4 construct: purchased Reaction Biology Corp
How it was run: as §1

[5] = target: T5, GRK4 (Homo sapiens, UniProt P32298)
T5 construct: purchased Reaction Biology Corp
T5 sequence (P32298 whole entry): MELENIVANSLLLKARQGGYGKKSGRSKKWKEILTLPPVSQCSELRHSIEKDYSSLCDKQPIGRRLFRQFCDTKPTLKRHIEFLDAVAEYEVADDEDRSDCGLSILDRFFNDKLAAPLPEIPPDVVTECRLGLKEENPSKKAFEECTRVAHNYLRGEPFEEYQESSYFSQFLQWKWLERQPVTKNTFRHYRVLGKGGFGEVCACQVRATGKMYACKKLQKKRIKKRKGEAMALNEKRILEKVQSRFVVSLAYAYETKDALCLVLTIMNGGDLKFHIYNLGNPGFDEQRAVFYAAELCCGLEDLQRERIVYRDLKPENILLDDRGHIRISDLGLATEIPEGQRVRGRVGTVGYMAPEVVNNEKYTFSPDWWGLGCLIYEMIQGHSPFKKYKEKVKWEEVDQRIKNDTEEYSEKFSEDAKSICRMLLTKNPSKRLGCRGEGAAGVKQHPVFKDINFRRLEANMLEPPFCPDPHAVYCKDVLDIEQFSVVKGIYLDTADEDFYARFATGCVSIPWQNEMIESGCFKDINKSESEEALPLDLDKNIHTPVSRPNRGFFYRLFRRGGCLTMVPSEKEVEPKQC
How it was run: as §1

[6] = target: T6, TIE2/TEK (Homo sapiens, UniProt Q02763)
T6 construct: purchased Reaction Biology Corp
How it was run: as §1

[7] = target: T7, CDC7/DBF4 (Homo sapiens, UniProt O00311)
T7 construct: purchased Reaction Biology Corp
T7 sequence (O00311 whole entry): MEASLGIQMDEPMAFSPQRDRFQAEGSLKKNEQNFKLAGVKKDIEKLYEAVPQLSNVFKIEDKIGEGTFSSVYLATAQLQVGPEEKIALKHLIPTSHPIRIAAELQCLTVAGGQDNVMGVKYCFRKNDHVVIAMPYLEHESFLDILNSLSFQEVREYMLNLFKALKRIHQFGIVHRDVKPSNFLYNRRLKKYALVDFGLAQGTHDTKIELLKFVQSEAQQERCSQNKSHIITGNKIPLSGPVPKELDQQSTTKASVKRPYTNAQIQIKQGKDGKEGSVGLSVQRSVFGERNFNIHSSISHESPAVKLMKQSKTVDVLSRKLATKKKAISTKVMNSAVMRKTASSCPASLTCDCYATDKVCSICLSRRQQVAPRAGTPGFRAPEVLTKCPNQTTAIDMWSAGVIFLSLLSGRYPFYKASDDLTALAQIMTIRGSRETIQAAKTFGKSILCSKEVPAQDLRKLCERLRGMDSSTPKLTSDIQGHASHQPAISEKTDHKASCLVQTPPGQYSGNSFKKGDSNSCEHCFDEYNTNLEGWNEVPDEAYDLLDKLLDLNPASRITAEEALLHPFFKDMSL
T7 sequence (Q9UBU7 whole entry partner): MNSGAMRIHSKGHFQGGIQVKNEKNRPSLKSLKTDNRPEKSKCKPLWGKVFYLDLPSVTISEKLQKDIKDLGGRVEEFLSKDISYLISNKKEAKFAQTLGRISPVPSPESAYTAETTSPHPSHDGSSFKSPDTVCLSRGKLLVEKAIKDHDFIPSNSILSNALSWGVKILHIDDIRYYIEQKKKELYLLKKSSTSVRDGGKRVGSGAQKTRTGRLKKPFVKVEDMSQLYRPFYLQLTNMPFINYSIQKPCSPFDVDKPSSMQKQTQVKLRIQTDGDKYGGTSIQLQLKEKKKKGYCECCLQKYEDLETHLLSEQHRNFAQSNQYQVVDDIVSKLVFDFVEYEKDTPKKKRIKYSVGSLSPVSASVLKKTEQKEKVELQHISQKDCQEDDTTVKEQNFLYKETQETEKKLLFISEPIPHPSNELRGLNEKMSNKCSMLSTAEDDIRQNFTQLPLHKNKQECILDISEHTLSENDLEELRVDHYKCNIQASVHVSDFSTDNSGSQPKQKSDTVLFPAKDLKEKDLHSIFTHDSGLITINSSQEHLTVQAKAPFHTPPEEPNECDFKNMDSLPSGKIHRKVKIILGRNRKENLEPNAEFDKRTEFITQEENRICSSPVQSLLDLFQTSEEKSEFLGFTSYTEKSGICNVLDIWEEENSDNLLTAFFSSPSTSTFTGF
How it was run: as §1

[8] = target: T8, PKAcb (Homo sapiens, UniProt P22694)
T8 construct: purchased Reaction Biology Corp
How it was run: as §1

[9] = target: T9, PKG2/PRKG2 (Homo sapiens, UniProt Q13237)
T9 construct: purchased Reaction Biology Corp
T9 sequence (Q13237 1-762): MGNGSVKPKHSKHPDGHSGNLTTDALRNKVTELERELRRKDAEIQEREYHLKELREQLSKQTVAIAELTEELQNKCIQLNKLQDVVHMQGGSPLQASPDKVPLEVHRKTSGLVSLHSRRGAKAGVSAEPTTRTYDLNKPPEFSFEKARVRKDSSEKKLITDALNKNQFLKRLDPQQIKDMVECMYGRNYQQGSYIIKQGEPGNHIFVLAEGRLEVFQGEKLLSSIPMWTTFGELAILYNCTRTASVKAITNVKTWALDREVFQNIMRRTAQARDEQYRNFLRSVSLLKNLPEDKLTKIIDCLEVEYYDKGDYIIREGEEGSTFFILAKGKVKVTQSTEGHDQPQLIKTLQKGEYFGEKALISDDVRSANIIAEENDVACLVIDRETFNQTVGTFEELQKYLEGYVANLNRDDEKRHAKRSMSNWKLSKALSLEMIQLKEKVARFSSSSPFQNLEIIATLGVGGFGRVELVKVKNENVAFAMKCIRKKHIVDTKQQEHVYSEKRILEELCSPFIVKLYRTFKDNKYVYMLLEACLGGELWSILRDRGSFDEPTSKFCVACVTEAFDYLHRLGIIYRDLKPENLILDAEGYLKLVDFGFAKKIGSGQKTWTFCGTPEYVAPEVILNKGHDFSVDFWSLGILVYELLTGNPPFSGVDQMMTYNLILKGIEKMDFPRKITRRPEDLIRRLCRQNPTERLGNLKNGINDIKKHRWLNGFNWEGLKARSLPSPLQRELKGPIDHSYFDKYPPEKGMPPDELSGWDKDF
How it was run: as §1

[10] = target: T10, CDK4/cyclin D1 (Homo sapiens, UniProt P11802)
T10 construct: purchased Reaction Biology Corp
T10 sequence (P11802 whole entry): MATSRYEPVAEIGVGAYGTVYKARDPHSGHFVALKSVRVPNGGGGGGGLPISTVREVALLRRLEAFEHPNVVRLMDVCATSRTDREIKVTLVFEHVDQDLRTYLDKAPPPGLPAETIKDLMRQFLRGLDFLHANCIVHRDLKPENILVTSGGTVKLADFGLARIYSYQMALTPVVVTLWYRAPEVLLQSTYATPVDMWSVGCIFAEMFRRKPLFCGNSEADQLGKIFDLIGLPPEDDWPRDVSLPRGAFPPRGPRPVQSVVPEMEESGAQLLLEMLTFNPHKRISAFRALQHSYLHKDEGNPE
T10 sequence (P24385 whole entry partner): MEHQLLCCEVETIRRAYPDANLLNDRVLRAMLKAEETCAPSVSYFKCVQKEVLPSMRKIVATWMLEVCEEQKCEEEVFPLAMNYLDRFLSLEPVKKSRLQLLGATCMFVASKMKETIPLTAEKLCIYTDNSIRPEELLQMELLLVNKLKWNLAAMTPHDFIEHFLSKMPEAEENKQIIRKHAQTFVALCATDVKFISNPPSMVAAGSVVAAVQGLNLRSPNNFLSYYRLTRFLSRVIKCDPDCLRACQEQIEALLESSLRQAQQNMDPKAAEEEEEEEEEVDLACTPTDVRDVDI
How it was run: as §1

[11] = target: T11, LIMK1 (Homo sapiens, UniProt P53667)
T11 construct: purchased Reaction Biology Corp
T11 sequence (P53667 whole entry): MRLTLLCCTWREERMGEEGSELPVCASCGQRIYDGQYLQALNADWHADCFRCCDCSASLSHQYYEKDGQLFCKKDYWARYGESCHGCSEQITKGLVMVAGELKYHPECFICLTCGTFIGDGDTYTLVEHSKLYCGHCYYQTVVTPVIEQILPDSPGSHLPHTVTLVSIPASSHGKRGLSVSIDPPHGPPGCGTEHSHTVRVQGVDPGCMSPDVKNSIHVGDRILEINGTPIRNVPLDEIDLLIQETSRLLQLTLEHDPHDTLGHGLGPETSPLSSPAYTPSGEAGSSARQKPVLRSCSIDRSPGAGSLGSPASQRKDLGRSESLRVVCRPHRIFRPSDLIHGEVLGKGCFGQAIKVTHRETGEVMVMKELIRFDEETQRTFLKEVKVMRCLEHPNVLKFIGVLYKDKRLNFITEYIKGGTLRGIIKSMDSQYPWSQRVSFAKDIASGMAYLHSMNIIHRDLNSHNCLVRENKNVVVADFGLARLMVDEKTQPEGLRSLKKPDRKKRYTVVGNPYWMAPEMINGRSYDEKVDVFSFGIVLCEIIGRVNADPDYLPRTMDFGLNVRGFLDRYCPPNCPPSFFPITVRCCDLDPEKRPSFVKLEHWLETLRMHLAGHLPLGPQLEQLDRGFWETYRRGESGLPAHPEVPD
How it was run: as §1

[12] = target: T12, MLCK/MYLK (Homo sapiens, UniProt Q15746)
T12 construct: purchased Reaction Biology Corp
How it was run: as §1

[13] = target: T13, DYRK1/DYRK1A (Homo sapiens, UniProt Q13627)
T13 construct: purchased Reaction Biology Corp

[14] = read-out: % Enzyme Activity (relative to DMSO controls) Run 1
[15] = read-out: % Enzyme Activity (relative to DMSO controls) Run 2

`C=CC(=O)Nc1cccc(Nc2nc(Nc3ccc(OCCOC)c(F)c3)ncc2F)c1` [Compound 2] gave an inhibition at 3 µM [1] of -2.59%, a remaining activity at 3 µM [1, 14] of 103% and a remaining activity at 3 µM [1, 15] of 102%. The inhibition at 3 µM [2] was 5.87%, the remaining activity at 3 µM [2, 14] was 95.1% and the remaining activity at 3 µM [2, 15] was 93.1%. For the same compound, the inhibition at 3 µM [3] was -1.88%, the remaining activity at 3 µM [3, 14] was 102% and the remaining activity at 3 µM [3, 15] was 101%. For the same compound, the inhibition at 3 µM [4] was -23.1%, the remaining activity at 3 µM [4, 14] was 124% and the remaining activity at 3 µM [4, 15] was 123%. It also gave an inhibition at 3 µM [5] of -6.61%, a remaining activity at 3 µM [5, 14] of 107% and a remaining activity at 3 µM [5, 15] of 106%. The inhibition at 3 µM [6] was -5.21%, the remaining activity at 3 µM [6, 14] was 103% and the remaining activity at 3 µM [6, 15] was 108%. It also gave an inhibition at 3 µM [7] of -2.02%, a remaining activity at 3 µM [7, 14] of 100% and a remaining activity at 3 µM [7, 15] of 104%. For the same compound, the inhibition at 3 µM [8] was 49.6%, the remaining activity at 3 µM [8, 14] was 49.7% and the remaining activity at 3 µM [8, 15] was 51.1%. The inhibition at 3 µM [9] was 14.2%, the remaining activity at 3 µM [9, 14] was 87.2% and the remaining activity at 3 µM [9, 15] was 84.5%. For the same compound, the inhibition at 3 µM [10] was 4.07%, the remaining activity at 3 µM [10, 14] was 95.6% and the remaining activity at 3 µM [10, 15] was 96.3%. For the same compound, the inhibition at 3 µM [11] was 38.8%, the remaining activity at 3 µM [11, 14] was 61% and the remaining activity at 3 µM [11, 15] was 61.4%. The inhibition at 3 µM [12] was 4.59%, the remaining activity at 3 µM [12, 14] was 95.6% and the remaining activity at 3 µM [12, 15] was 95.2%. For the same compound, the inhibition at 3 µM [13] was 12%, the remaining activity at 3 µM [13, 14] was 87.7% and the remaining activity at 3 µM [13, 15] was 88.4%.
